The source of these data is paper PMC9421654, “Discovery of Substituted Di(pyridin-2-yl)-1,2,4-thiadiazol-5-amines as Novel Macrofilaricidal Compounds for the Treatment of Human Filarial Infections” (Journal of Medicinal Chemistry, 2022).

Series [1] can be described thus: Kinetic solubility measurement. It is filed as physicochemical. As to conditions: 10 mM DMSO stock solutions. How it is done:
Kinetic Solubility Measurement: The standard kinetic solubility assay runs on […] concentration range using 10 mM DMSO stock solutions for plating. Single point calibration assay runs in duplicates. Concentration of standards: […] DMSO solutions prepared by diluting 10 mM stock, solution with DMSO. Concentration of samples: 200 µM, 4 µl 10 mM DMSO stock solution diluted with the appropriate buffer to […]. DMSO content:
2%. Buffers: pH=7.4 (0.1M Potassium phosphate buffer, diluted from Sigma 1M P3619-1GA to 0.1 M with MilliQ water), pH=2.2 (0.1M- NaCl pH adjusted with 0.1N HCL), pH=6.8 (0.1M - KH2PO4/K2HPO4), pH=5 (4 .04g of NaOH (Pellets), 8.65g of Glacial Acetic Acid, 11.874g of NaCl. In in 1 liter water. Adjusted to pH to 5 with either 1N NaOH or 1N HCl). The controls were plated from the standard 10 mM DMSO stock and run on the standard concentration (200µM) range of the assay. Incubation time: 24 hours shaking at […] in Millipore Multiscreen HTS filter plate for Aqueous Solubility Assay (MSSLBPC50), on room temperature.
After incubation time filtration with positive pressure manifold was performed. […]

For series [2], the system named is O. gutturosa adult male worms. Nature of the series: O. gutturosa adult worm ex vivo assay, MTT/formazan viability. As to conditions: supplement, SD in brackets in the PDF table, read-out: O. gutturosa EC50 (uM) MTT viability inhibition. It counts as cell-based, Onchocerca gutturosa. How it is done: (§1) Activity against O. gutturosa adult male worms was determined using reported procedures.[7] The EC50 values were calculated using Microsoft Office Excel (2010) data analysis software. The tested compound is considered active when a motility reduction of ≥50% is observed by comparison to the untreated controls. O. gutturosa adult male worms were obtained postmortem from freshly slaughtered cattle. The worms were dissected from the nuchal ligament connective tissues of naturally infected cattle in Gambia, West Africa; the material was purchased from the International Trypanotolerance Centre, Banjul, from local butchers for use in this study. The adult worms were transferred individually to each well of a sterile 24-well (2 mL) plate (Thermo Fisher Scientific, UK) and maintained for at least 24 h in culture before use. The medium used was a minimum essential medium (MEM) with Earl’s salts and L-glutamine (Life Technologies Ltd., UK) supplemented with 10% heat inactivated newborn calf serum (Life Technologies Ltd., UK), 200 units/mL penicillin, 200 μg/mL streptomycin, and 0.5 μg/mL amphotericin B (Life Technologies Ltd., UK). Only normally active worms were used for the test, and all assays were conducted at 37 °C and 5% CO2. The positive control drug used was Immiticide (melarsomine dihydrochloride, Merial, USA). Known amounts of compounds were solubilized in 1 mL of DMSO. All stock solutions were allowed to stand at room temperature prior to use. The test items (four worms/drug concentration) were compared to untreated controls (six worms) and the positive control (two worms/drug concentration). Drug efficacy was assessed by the measurement of mean worm motility scores on a scale of 0 (immotile) to 10 (maximum) every 24 h, terminating at 120 h, using an Olympus inverted microscope. The results are reported as a percentage of the maximum score obtainable (100%) by calculating the motility index scores. The test drug is considered active when a motility reduction of ≥50% is observed by comparison to the untreated controls. […] In addition, biochemical evaluation of worm viability was assessed using MTT/formazan colorimetry. The MTT assay was carried out after the last motility reading (120 h). Single intact worms were placed in each well of a 48-well plate (Thermo Fisher Scientific, UK) containing 0.5 mL of 0.5 mg/mL MTT (Sigma, UK) in PBS solution and then incubated for 30 min at 37 °C. The worms were removed, blotted carefully, and individually transferred to separate wells of a 96-well microtiter plate, each containing 200 μL of DMSO to solubilize the formazan. After 1 h, the plate was gently agitated to disperse the color evenly and the absorbance value (optical density, OD) of the resulting formazan solution was determined at 490 nm using an absorbance microplate reader (Biotek ELx800, Thermo Fisher Scientific, UK). The results are expressed as the mean OD per drug concentration. Inhibition of formazan formation is correlated with worm damage or death.

Series [3] is described as follows: LogD measurement (octanol-water). It counts as physicochemical. How it is done:
LogD Measurement: Measurement of octanol-water distribution coefficient of samples using a […]
stock solutions for plating. Aqueous Phase: 100mM Buffer, pH=7.4 (0.1M Potassium phosphate buffer, diluted from Sigma 1M P3619-1GA to 0.1 M with MilliQ water), pH=2.2 (0.1M- NaCl pH adjusted with 0.1N HCL), pH=6.8 (0.1M - KH2PO4/K2HPO4), pH=5 (4 .04g of NaOH (Pellets), 8.65g of Glacial Acetic Acid, 11.874g of NaCl. In in 1 liter water. Adjusted to pH to 5 with either 1N NaOH or 1N HCl); Organic Phase: 1-Octanol (O021). Sample Concentration:
1000uM, […] 10 mM DMSO stock solution diluted in […] of organic Phase and […] of aqueous Phase. DMSO content: 10%. The controls were plated from the standard 10 mM DMSO stock and run on the standard concentration ([…]) range of the assay. Incubation time:
Sonication for 30 minutes followed by 24 hours shaking at 750 rpm in 96 deep well plate (VWR

The test system of series [4] is O. gutturosa adult male worms. The experiment in a line: O. gutturosa adult worm ex vivo assay, motility. It is filed as cell-based, Onchocerca gutturosa. The method, then:
as §1
Data S1. Onchocerca gutturosa adult male worms EC 50 Curves
Plotted using Graph Pad Prism 7.03, least square original fit, sigmoidal, 4PL
The measurement of mean worm motility every 24 h, terminating at 120 h, serial 1 in 4 drug dilutions to find
activity endpoint and produce EC50 values (geomean, n=2) for motility reduction. (4 worms per drug […]

Series [5] can be described thus: Liver S9 metabolic stability assay, human. It counts as in vitro ADME. As to conditions: 3 μM, 60 min. The method, then:
(§2) Liver S9 Metabolic Stability Assay: Incubations were performed at 37 °C in a Dubnoff Shaking water bath using 2 mL 96-well incubation plates. Rat and human S9 protein concentrations were 0.75 mg/ml and 1.2 mg/ml, respectively. The final concentrations of NADPH, UDPGA, and GSH were 1, 0.5, and 2.5 mM, and the final concentration of PAPS was 0.05 mg/ml. Substrate concentrations were 3µM, incubation time was 60 minutes, and all tests were done in triplicate. The incubation was conducted in 200 mM Tris buffer containing 2 mM magnesium chloride, pH=7.4 and the total incubation volume was 0.5 ml. Samples were analysed via LC-MS/MS and reported as percentage remaining after incubation for 60 minutes. […]

A short description of series [6]: Liver S9 metabolic stability assay, rat. It is filed as in vitro ADME. The settings on record: 3 μM, 60 min. How it is done: as §2
Setting [7] is: supplement, read-out: measured logD.
[8] abbreviates: Onchocerca gutturosa, read-out: O. gutturosa EC50 μM (SD), ex vivo adult worm motility reduction, SD in brackets.
Where [9] appears, read: Onchocerca gutturosa, read-out: O. gutturosa EC50 (uM) motility inhibition, supplement, SD in brackets in the PDF table.

In brackets after ≈: the same amount, converted by molar mass. Read-outs that look alike come from different tables or passages of the source.

`COc1cccnc1Nc1nc(-c2cc(C)ccn2)ns1` [Compound 29, N-(3-Methoxy-2-pyridyl)-3-(4-methyl-2-pyridyl)-1,2,4-thiadiazol-5-amine] returned a kinetic solubility at 24 h in series [1] of 26.5 µM (≈ 7.93 µg/mL). Further, the EC50 in series [2] (Onchocerca gutturosa) was 0.88 µM; in series [4] (setting [8]) it was 0.12 µM; in series [4] (setting [9]), 0.121 µM. Also, the logD at 24 h in series [3] (pH 7.4, read-out: logD) amounted to 2.1; in series [3] (setting [7]) it was 2.1. In addition, the “Human S9 metabolic stability” value in series [5] was determined as 72 % remaining. Moreover, the “Rat S9 metabolic stability” value in series [6] is 70 % remaining.

In turn, `CC(C)Oc1cc(-c2nsc(Nc3ncccc3N(C)C)n2)ncc1C(F)(F)F` [Compound 33] displayed a solubility (kinetic) at 24 h in series [1] of 1.43 µM (≈ 0.607 µg/mL). In addition, the EC50 in series [2] (Onchocerca gutturosa) is 0.83 µM; in series [4] (setting [8]), 0.85 µM; in series [4] (setting [9]) it was 0.852 µM. Moreover, the logD at 24 h stood at 3 in series [3] (pH 7.4, read-out: logD) and 3 in series [3] (setting [7]). In addition, in series [5], the “Human S9 metabolic stability” value is 100 % remaining. Further, the “Rat S9 metabolic stability” value in series [6] stood at 8 % remaining.

In series [1], `CC(C)Oc1ccc(-c2nsc(Nc3cc(C(F)(F)F)c(C(C)C)cn3)n2)nc1` [Compound 37] showed a kinetic solubility at 24 h of 1.00 µM (≈ 0.423 µg/mL). Moreover, the figures for the EC50 in series [2] (Onchocerca gutturosa), in series [4] (setting [8]) and in series [4] (setting [9]) were 0.3 µM, 0.05 µM and 0.053 µM, respectively. Moreover, the logD at 24 h in series [3] (pH 7.4, read-out: logD) was 2.8; in series [3] (setting [7]), 2.8. Also, the “Human S9 metabolic stability” value in series [5] is 100 % remaining. Further, the “Rat S9 metabolic stability” value in series [6] is 100 % remaining.

Consider `CC(C)c1cnc(Nc2nc(-c3ncccc3OC3CC3)ns2)cc1C(F)(F)F` [Compound 38, 3-(3-Cyclopropoxypyridin-2-yl)-N-(5-isopropyl-4-(trifluoromethyl)pyridin-2-yl)-1,2,4-thiadiazol-5-amine], for which the solubility (kinetic) at 24 h in series [1] was found to be 1.03 µM (≈ 0.434 µg/mL). Also, the 50% effective concentration (EC50) in series [2] (Onchocerca gutturosa) is < 0.02 µM; in series [2] it was < 0.015 µM; in series [4] (setting [8]) it was 0.02 µM; in series [4] (setting [9]), 0.017 µM. In addition, the logD at 24 h in series [3] (pH 7.4, read-out: logD) is 2.95; in series [3] (setting [7]), 2.95. Also, the “Human S9 metabolic stability” value in series [5] is given as 100 % remaining. For the same molecule, the “Rat S9 metabolic stability” value in series [6] is reported as 93 % remaining.

For `Cc1cccnc1Nc1nc(-c2cnc(OC(C)C)cn2)ns1` [Compound 39, 3-(5-Isopropoxypyrazin-2-yl)-N-(3-methyl-2-pyridyl)-1,2,4-thiadiazol-5-amine], in series [1], the solubility (kinetic) at 24 h worked out at 2.1 µM (≈ 0.69 µg/mL). In addition, the EC50 in series [2] (Onchocerca gutturosa) turned out to be 1.1 µM; in series [4] (setting [8]), 0.29 µM; in series [4] (setting [9]) it was 0.286 µM. Moreover, the logD at 24 h was determined as 3.1 in series [3] (pH 7.4, read-out: logD) and 3.1 in series [3] (setting [7]). Besides, in series [5], the “Human S9 metabolic stability” value came out at 81 % remaining. In series [6], the “Rat S9 metabolic stability” value is 74 % remaining.

`Cc1nccnc1Nc1nc(-c2ccc(OC(C)C)cn2)ns1` [Compound 41, 3-(5-Isopropoxy-2-pyridyl)-N-(3-methylpyrazin-2-yl)-1,2,4-thiadiazol-5-amine] came in with a kinetic solubility at 24 h in series [1] of 24.5 µM (≈ 8.04 µg/mL). The EC50 in series [2] (Onchocerca gutturosa) is < 0.19 µM; in series [4] (setting [8]) it was 0.06 µM; in series [4] (setting [9]), 0.058 µM. Also, the logD at 24 h in series [3] (pH 7.4, read-out: logD) was 2.7; in series [3] (setting [7]), 2.7. In series [5], the “Human S9 metabolic stability” value is 94 % remaining. Besides, the “Rat S9 metabolic stability” value in series [6] is given as 100 % remaining.

As for `Cc1cccnc1N(C)c1nc(-c2ccc(OC(C)C)cn2)ns1` [Compound 42, 3-(5-Isopropoxypyridin-2-yl)-N-methyl-N-(3-methylpyridin-2-yl)-1,2,4-thiadiazol-5-amine], the kinetic solubility at 24 h in series [1] is 33.5 µM (≈ 11.4 µg/mL). Further, the EC50 in series [2] (Onchocerca gutturosa) was 0.36 µM; in series [2], 0.357 µM; in series [4] (setting [8]), 0.2 µM; in series [4] (setting [9]), 0.21 µM; in series [4] (read-out: O. gutturosa EC50 (uM) motility inhibition, supplement, SD in brackets in the PDF table) it was 0.212 µM. The logD at 24 h in series [3] (pH 7.4, read-out: logD) came to 2.35; in series [3] (setting [7]), 2.35. Moreover, the “Human S9 metabolic stability” value in series [5] was 96 % remaining. Moreover, the “Rat S9 metabolic stability” value in series [6] was 81 % remaining.

In series [1], `Cc1cccnc1N(c1nc(-c2ccc(OC(C)C)cn2)ns1)C(C)C` [Compound 43, 3-(5-Isopropoxypyridin-2-yl)-N-isopropyl-N-(3-methylpyridin-2-yl)-1,2,4-thiadiazol-5-amine] registered a kinetic solubility at 24 h of 118 µM (≈ 43.6 µg/mL). Also, the EC50 was 3.4 µM in series [2] (Onchocerca gutturosa) and 3.3 µM in series [4] (setting [8]). Further, the logD at 24 h was 3.1 in series [3] (pH 7.4, read-out: logD) and 3.1 in series [3] (setting [7]). In series [5], the “Human S9 metabolic stability” value stood at 79 % remaining. The “Rat S9 metabolic stability” value in series [6] turned out to be 60 % remaining.

`CC(C)Oc1ccc(-c2nsc(N(C)c3ncccc3C(C)C)n2)nc1` [Compound 44, 3-(5-Isopropoxypyridin-2-yl)-N-(3-isopropylpyridin-2-yl)-N-methyl-1,2,4-thiadiazol-5-amine] displayed a kinetic solubility at 24 h in series [1] of 121 µM (≈ 44.7 µg/mL). For the same molecule, the values for the EC50 in series [2] (Onchocerca gutturosa) and in series [4] (setting [8]) were 1.4 µM and 1.67 µM, respectively. Further, the logD at 24 h worked out at 3 in series [3] (pH 7.4, read-out: logD) and 3 in series [3] (setting [7]). Moreover, in series [5], the “Human S9 metabolic stability” value was 32 % remaining. Also, in series [6], the “Rat S9 metabolic stability” value is given as 4 % remaining.
